Where “and” joins values, the source holds several entries; their conditions need not be identical. Equal entries are not always repeated.
System: urethra/internal sphincter
Assay: Urethral perfusion pressure, vesicular pressure and external sphincter EMG in anaesthetised female rats
Assay type: in vivo, rat
Protocol: Female Sprague-Dawley rats (225–350 g) were anaesthetised using urethane. The bladder was exposed through a midline incision into the abdomen and intravesicular pressure was recorded via a catheter inserted into the bladder. A second catheter was inserted into the bladder to allow infusion of saline using a syringe pump when required. A third catheter was inserted into the bladder and wedged into position in the neck of the bladder with the catheter extending into the urethra. This set-up allowed constant infusion of saline into the urethra whilst urethral pressure was recorded. Changes in urethral pressure are assumed to reflect changes in urethral resistance. In each animal, electromyographic (EMG) recordings were made of urethral striated muscle activity by inserting 2 fine copper electrodes either side of the urethral opening.
Once stable, bladder and urethral pressures were recorded, the bladder was inflated by direct infusion of physiological saline into the bladder at a rate of 0.046 ml/min. This rate approximates the maximum hourly diuresis rate. Infusion into the bladder was terminated prior to evoking micturition and the bladder volume maintained. During and after saline infusion, simultaneous recordings were made of urethral perfusion pressure and of external sphincter EMG activity. Once these parameters had stabilised, autonomic drive to the lower urinary tract was inhibited by administration of hexamethonium (10 mg/kg i.v.) and changes to urethral perfusion pressure and external sphincter EMG recorded. Decamethonium (30 mg/kg i.v.) was then added to remove striated muscle activity. In one group of animals, prior to intravesicular infusion of saline a single bolus dose of MCI-225 was administered (3 mg/kg i.v.). In a second group of animals a bolus dose of vehicle was administered. The effect of MCI-225 and vehicle was determined by analysing the changes in urethral perfusion pressure and external sphincter EMG activity during and after infusion and following administration of the ganglion blocker hexamethonium and then finally decamethonium to block the striated muscle activity of the external sphincter.

Cc1cc2c(-c3ccccc3F)nc(N3CCNCC3)nc2s1.Cl.O [MCI-225, 4-(2-Fluorophenyl)-6-methyl-2-(1-piperazinyl)thieno[2,3-D]pyrimidine monohydrate hydrochloride]
Effect on tone of the urethra/internal sphincter (3 mg/kg i.v., anaesthetised female rats): increased the tone of the urethra/internal sphincter | Decrease in urethral perfusion pressure after decamethonium, from values before hexamethonium (3 mg/kg i.v., after hexamethonium 10 mg/kg i.v. then decamethonium 30 mg/kg i.v., vehicle 44±4%): 64±7% | Fall in external sphincter activity (EUS-EMG) after hexamethonium (3 mg/kg i.v., after hexamethonium 10 mg/kg i.v., compared with vehicle-treated animals): Larger falls | Drop in urethral perfusion pressure after hexamethonium (3 mg/kg i.v., after hexamethonium 10 mg/kg i.v., vehicle 35±7%): 55±5% | Increase in urethral pressure from baseline (3 mg/kg i.v., baseline vs after intravesicular infusion, p=0.04 Students t test, vehicle 29%): 77% | Vesicular pressure (VP) after intravesicular infusion (anaesthetized female rats, after intravesicular saline infusion, 3 mg kg^-1 i.v., n=3): 8 ± 1 mmHg | Urethral perfusion pressure (UP) after intravesicular infusion (anaesthetized female rats, after intravesicular saline infusion, 3 mg kg^-1 i.v., n=3, monohydrate hydrochloride): 23±2 mmHg | Baseline urethral perfusion pressure (UP) (anaesthetized female rats, baseline before intravesicular infusion, 3 mg kg^-1 i.v., n=3, monohydrate hydrochloride): 13±1 mmHg and 13 ± 2 mmHg

From patent publication US7220748B2, “Use of 4-(2-Flurophenyl)-6-methyl-2-(1-piperazinyl)thieno(2,3-D)-pyrimidine for treating of urinary incontinence” (Arachnova Therapeutics Ltd., priority 2002, dated 2007)
